Here are results for one compound from patent publication US11274332B2, “Methods of administering 3,4-diaminopyridine” (SERB SA, priority 2011, dated 2022).

The target in the test is T1, cloned human Kv1.1 potassium channel (Homo sapiens, UniProt Q09470).
T1 construct: expressed in transfected cells
Description: PatchXpress inhibition of cloned human Kv1.1 in HEK293 cells (Example 6). It is filed as cell-based. The conditions noted are these: hKv1.1, up to 3000 μM. From the text: The objective of this study was to examine the in vitro effects and determine the […] of 3,4-DAP phosphate and the metabolite N-(4-aminopyridin-3-yl) acetamide HCl on the following ion channels: cloned human Kv1.1 potassium channel (encoded by the human KCNA1 gene, expressed in HEK293 cells), cloned human Kv1.2 potassium channel (encoded by the human KCNA2 gene, expressed in HEK293 cells), cloned human Kv1.3 potassium channel (encoded by the human KCNA3 gene, expressed in CHO cells), cloned human Kv1.4 potassium channel (encoded by the human KCNA4 gene, expressed in HEK293 cells), cloned human Kv1.5 potassium channel (encoded by the human KCNA5 gene and expressed in CHO cells), responsible for IKur, ultra-rapid delayed rectifier potassium current.
Chemicals used in solution preparation were purchased from Sigma-Aldrich (St. Louis, Mo.), unless otherwise noted, and were of ACS reagent grade purity or higher. Stock solutions of each test article (100 mM, 30 mM and 1.00 mM 3,4-DAP phosphate and 100 mM N-(4-aminopyridin-3-yl)acetamide) were prepared in sterile water and stored refrigerated. […]
In preparation for a recording session, intracellular solution was loaded into the intracellular compartments of the Sealchip16. […] After establishment of a whole-cell configuration, membrane currents were recorded using dual-channel patch clamp amplifiers in the PatchXpress®. […]

T1 sequence (Q09470 whole entry): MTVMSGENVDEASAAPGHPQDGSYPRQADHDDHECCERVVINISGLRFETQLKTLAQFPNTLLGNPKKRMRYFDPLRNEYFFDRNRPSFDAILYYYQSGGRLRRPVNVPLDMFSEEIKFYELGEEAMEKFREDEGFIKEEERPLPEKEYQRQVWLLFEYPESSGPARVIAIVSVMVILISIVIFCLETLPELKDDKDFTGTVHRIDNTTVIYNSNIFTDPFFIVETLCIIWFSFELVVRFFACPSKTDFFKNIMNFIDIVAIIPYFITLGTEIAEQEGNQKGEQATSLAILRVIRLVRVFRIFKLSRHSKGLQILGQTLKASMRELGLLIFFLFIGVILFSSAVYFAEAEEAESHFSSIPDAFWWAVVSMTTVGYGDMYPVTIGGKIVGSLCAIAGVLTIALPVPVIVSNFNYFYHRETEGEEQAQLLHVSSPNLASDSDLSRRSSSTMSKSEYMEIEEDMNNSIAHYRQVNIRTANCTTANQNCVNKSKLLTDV

For `CC(=O)Nc1cnccc1N` [3-N-acetyl amifampridine, N-(4-aminopyridin-3-yl)acetamide], the “activity on K+ channel” value is “inactive”. For the same compound, the “activity on K+ channel” value (listed as N-acetyl metabolite) is “not active”.
